Data set [1] deals with OVA-sensitized and challenged mice. The data set is described as follows: OVA-induced allergic asthma mouse model. The data set is classed as in vivo. As to conditions: for OVA-induced airway sensitivity / airway resistance: pretreatment, F56 10 mg/kg i.p. 12 hours before OVA challenge, methacholine. The procedure:
(A) Protocol of induction of allergic airway inflammation solution after allergen antigen challenge in a wild-type mouse and time course. F56 (10 mg/kg three times/day) was applied after tertiary OVA challenge. (B) Airway reactivity measured by whole body plethysmography in an OVA-induced asthma model. Penh was measured in response to an increased dose of methacholine (mean±S.E., n=4). (C) Representative PAS staining of airway tissue. Size bar, 100 μm. (D) Summary of PAS positive cells (mean±S.E., n=4). * P<0.05.
Experiments were performed using 8-week-old BALB/c mice. The experimental protocol was approved by the Animal Ethics Committee of Yonsei University. Mice were housed and maintained in an animal facility under standard laboratory conditions [12/12 hours light/dark cycle, controlled temperature (21±2° C.) and humidity (55±5%) and access to any food and water]. All the experiments were performed according to the guidelines of Yonsei University Animal Research Committee. Mice were divided to 3 groups, vehicle group (vehicle-treated PBS-sensitized and challenged mice), OVA group (vehicle-treated OVA-sensitized and challenged mice) and OVA+F56 group (F56-treated OVA-sensitized and challenged mice). Age and sex-matched 8-week-old mice were sensitized by i.p. injection of OVA (Sigma-Aldrich) on Days 0 and 14. The sensitization emulsion was composed of 50 μg OVA and 2 mg aluminum potassium sulfate in 200 μL saline solution. On Days 21, 22 and 23, sensitized mice were lightly anesthetized by isoflurane inhalation and challenged with 100 μg OVA in 30 μL saline solution administered intranasally. The control mice were treated in the same manner as PBS. F56 (10 mg/kg) was administered by i.p injection 12 hours before i.n. OVA challenge, respectively.
The airway response for methacol (MCh) 24 hours after the last OVA exposure was measured using FlexiVent system (Scireq, Montreal, QC, Canada). Mice were anesthetized by intraperitoneal injection of the mixture of Zoletil (30 mg/kg; Virbac Laboratories, Carros, France) and Rompun (10 mg/kg; Bayer, Leverkusen, Germany), and then tracheostomy was performed to connect to FlexiVent. The base line airway resistance was measured after spraying saline solution for 10 seconds using Aeroneb ultrasonic nebulizer (SCIREQ). After measuring the base line, the mice were exposed to nebulized methacholine at an increased concentration (0, 1.56, 3.13, 6.25, 12.5 and 25 mg/mL). In addition, using whole body plethysmography (Buxco, Miami, FL, USA), the bronchial airway responsibility was measured. As a major index of the airway responsibility, enhanced pause (Penh) was used. Under the base line condition, Penh was measured for 2 minutes. Then, the mice were exposed to inhalation of PBS or MCh (25 mg/mL) for 2 minutes. The Penh result was expressed as an absolute value.
After evaluation of the airway responsiveness, BAL was performed. The cells were pelleted by centrifugation and resuspended in PBS to obtain the number of cells. Cytospin was prepared with a cell centrifuge (Shandon Cytospin 4 cell centrifuge; Thermo Scientific, MA, USA, USA) and stained with Diff-Quik Stain Set (Dade Behring, USA, DE, USA) to evaluate inflammation.
For evaluation of airway inflammation, left lung was fixed in 4% paraformaldehyde overnight and embedded in paraffin. A histological slide was prepared from 5-μm section, and stained with hematoxylin and eosin (H&E). The inflammation score showing the severity of bronchial inflammation was evaluated by 3 blind observers using a method reported conventionally. To evaluate goblet cell hyperplasia, the section was stained with periodic acid-Schiff (PAS) using PAS staining kit (Sigma-Aldrich), according to the manufacturer's protocol. The nasal cavity mucous membrane and HNE cells collected on the transwell were softly washed with PBS and fixed with 4% paraformaldehyde. […]

In data set [2] the target is T1, SLC26A3 (Homo sapiens, UniProt P40879).
T1 construct: expressed in transfected cells; host or cells: CHO-K1
T1 sequence (P40879 whole entry, species assumed): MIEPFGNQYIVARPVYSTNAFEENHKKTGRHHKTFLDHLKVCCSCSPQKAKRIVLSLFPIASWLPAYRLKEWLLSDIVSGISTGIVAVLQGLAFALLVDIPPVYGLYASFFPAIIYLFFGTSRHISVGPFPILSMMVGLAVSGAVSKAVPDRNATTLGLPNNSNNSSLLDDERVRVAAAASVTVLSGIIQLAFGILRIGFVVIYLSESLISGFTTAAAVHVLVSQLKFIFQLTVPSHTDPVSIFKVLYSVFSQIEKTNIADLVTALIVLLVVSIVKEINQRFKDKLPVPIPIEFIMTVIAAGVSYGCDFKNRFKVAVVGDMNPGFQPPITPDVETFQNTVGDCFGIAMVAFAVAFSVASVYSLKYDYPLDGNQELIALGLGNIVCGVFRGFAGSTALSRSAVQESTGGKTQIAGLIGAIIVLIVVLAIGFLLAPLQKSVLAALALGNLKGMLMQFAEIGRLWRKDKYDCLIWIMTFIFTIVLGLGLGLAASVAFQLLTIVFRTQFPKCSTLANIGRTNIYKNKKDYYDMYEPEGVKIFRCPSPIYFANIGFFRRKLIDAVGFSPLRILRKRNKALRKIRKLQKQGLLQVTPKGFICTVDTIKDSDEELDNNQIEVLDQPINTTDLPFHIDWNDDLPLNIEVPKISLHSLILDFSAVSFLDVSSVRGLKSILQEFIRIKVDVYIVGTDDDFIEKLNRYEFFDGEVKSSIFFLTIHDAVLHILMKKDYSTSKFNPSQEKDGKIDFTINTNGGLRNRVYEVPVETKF
In words: Cl^−/HCO3^− exchange in CHO-K1 cells expressing SLC26A3. The settings on record: weakly inhibited. In kind it is cell-based. The procedure:
(§1) (A) The inhibition of mouse pendrin (mPDS)-mediated Cl^−/I^− exchange activity by F56 was measured in CHO-K1 cells (mean±S.E., n=5). The indicated concentration of F56 was pretreated for 10 minutes. (B) Summary of dose-response for inhibition of the human pendrin (hPDS)-mediated (closed circle, FIG. (a), C) and mPDS-mediated (open circle) Cl^−/I^− exchange activity. (C-F) Representative traces of intracellular pH in CHO-K1 cells expressing SLC26A3, SLC26A6, SLC26A7 and SLC26A9 were shown. The application of Cl^− free solution induced intracellular alkalization by Cl^−/HCO3^− exchange. The indicated concentration of F56 was pretreated for 10 minutes. (G) the effect of F56 (100 μM) on the CFTR chloride channel activity was measured in FRT cells expressing human CFTR. The CFTR current was activated by 20 μM forskolin and was inhibited by 10 μM CFTRinh-172. (H) The effect of F56 (100 μM) on the AN01 chloride channel activity was measured in FRT cells expressing human AN01. Before 10 minutes prior to AN01 activation by 100 μM ATP, F56 was added. (Right) Peak current summary (mean±S.E., n=3). (I) The effect of F56 on the hERG (Kv11.1) potassium channel activity was measured in HEK293T cells expressing human Kv11.1 (mean±S.E., n=4). […] (J) The effect of F56 on the 5-HT2A channel activity was measured in FRT cells expressing human 5-HT2A (mean±S.E., n=4). […]

Data set [3] addresses T2, SLC26A7 (Homo sapiens, UniProt Q8TE54).
T2 construct: expressed in transfected cells; host or cells: CHO-K1
In words: Cl^−/HCO3^− exchange in CHO-K1 cells expressing SLC26A7. In kind it is cell-based. The procedure: as §1

For data set [4], the system named is pendrin mRNA. In words: Pendrin mRNA expression in LPS-treated hAEC, real-time PCR. The data set is classed as cell-based, human. Here is the method:
(§2) The total messenger RNA (mRNA) was extracted using TRIzol reagent (Invitrogen, Carlsbad, CA, USA), and was reverse-transcribed using a random hexamer primer, an oligo(dT) primer and SuperScript® III reverse transcriptase (Invitrogen). Quantitative real-time PCR was performed using StepOnePlus Real-Time PCR system (Applied Biosystems, Foster City, CA, USA) and Thunderbird SYBR qPCR mix (Tokyobo, Osaka, Japan). Thermal cycling conditions included the initial stage at 95° C. for 5 minutes, and subsequent 40 cycles at 95° C. for 10 seconds, at 55° C. for 20 seconds and at 72° C. for […].
For orientation: Real-time PCR tracks product formation cycle by cycle.

The test system of data set [5] is Duox2 mRNA. In words: Duox2 mRNA expression in LPS-treated hAEC, real-time PCR. The data set is classed as cell-based, human. Here is the method:
as §2

A short description of data set [6]: Stability statements.
Setting [7] is: established model of allergic asthma, 10 mg/kg three times/day after tertiary OVA challenge.

T2 sequence (Q8TE54 whole entry, species assumed): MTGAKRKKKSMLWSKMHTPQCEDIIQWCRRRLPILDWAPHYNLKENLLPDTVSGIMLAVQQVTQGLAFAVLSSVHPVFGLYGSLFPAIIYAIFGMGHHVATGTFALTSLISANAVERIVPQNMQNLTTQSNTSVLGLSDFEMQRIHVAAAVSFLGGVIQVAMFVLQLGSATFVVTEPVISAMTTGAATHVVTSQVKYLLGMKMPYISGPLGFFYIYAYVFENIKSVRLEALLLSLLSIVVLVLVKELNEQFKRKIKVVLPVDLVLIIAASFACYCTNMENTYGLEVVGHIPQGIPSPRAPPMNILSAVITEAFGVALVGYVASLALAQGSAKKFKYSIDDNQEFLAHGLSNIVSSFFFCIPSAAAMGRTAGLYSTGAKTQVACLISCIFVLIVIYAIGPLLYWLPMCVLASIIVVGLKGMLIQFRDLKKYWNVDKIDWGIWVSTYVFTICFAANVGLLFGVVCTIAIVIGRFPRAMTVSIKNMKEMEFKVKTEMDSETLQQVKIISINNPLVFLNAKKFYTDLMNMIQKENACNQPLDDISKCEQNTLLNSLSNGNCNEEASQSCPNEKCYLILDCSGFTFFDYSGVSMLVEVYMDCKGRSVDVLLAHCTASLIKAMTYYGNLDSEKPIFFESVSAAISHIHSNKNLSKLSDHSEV

For the molecule `CC(C)(C)c1ccc(C2=NC(=Cc3ccc[nH]3)C(=O)O2)cc1` [F10, 4-((1H-pyrrol-2-yl)methylene)-2-(4-(tert-butyl)phenyl)oxazol-5 (4H)-one], the “OVA-induced airway sensitivity / airway resistance” value in data set [1] is on record as “reduced the airway resistance”.

A word on the IC50: it is the point on the concentration scale where inhibition reaches its midpoint. Read a high IC50 as weaker potency in that assay. `CC(C)(C)c1ccc(C2=NC(=Cc3cccs3)C(=O)O2)cc1` [F56, 2-(4-(tert-butyl)phenyl)-4-(thiophen-2-ylmethylene)oxazol-5(4H)-one] showed an IC50 in data set [2] greater than 100 µM. Further, in data set [3], the “effect on SLC26A7 Cl^−/HCO3^− exchange” value is given as “did not affect”. Further, in data set [1] (OVA-challenged mice), the “serum level of OVA-specific IgG” value was “not changed”. The “goblet cells, inflammation infiltration and epithelial thickness in central airway (histology)” value in data set [1] (OVA-challenged mice, 10 mg/kg i.p.) was “weekended”. Also, the average inflammation score result in data set [1] (OVA-challenged mice, versus non-treated group) is listed as “significantly lower”. Also, the “number of eosinophils and neutrophils in BALF” value in data set [1] (OVA-sensitized mice, 10 mg/kg i.p.) was “reduced”. Besides, in data set [1] (setting [7]), the OVA-induced airway sensitivity entry was “significantly reduced” and the “PAS positive cells in the airway epithelium” value is recorded as “significantly reduced”. Further, the “OVA-induced airway sensitivity / airway resistance” value in data set [1] is on record as “significantly weakened”. Besides, in data set [4], the “mRNA expression level of pendrin” value is recorded as “did not change”. The “mRNA expression level of Duox2” value in data set [5] is recorded as “did not change”. Moreover, the chemical stability result in data set [6] is recorded as “chemically stable”.

(Values after US12691101B2, “Compound and method for preventing or treating of respiratory diseases comprising the same as an active ingredient” (YONSEI UNIVERSITY, UNIVERSITY - INDUSTRY FOUNDATION (UIF), priority 2019, dated 2026).)
